Measurements published in patent publication US7585644B2, “Mycopolasma detecting methods and materials” (priority 2003, dated 2009).

Tests used:
[1] = system: luciferase enzyme/reaction; test: Effect of detergents and substrate on light output of the luciferase reaction; type: biochemical
Source text: (§1) The aim of the following experiments was to determine the concentrations of Triton-X100 in the Hepes-EDTA buffer on the ratios seen with mycoplasma contaminated K562 cell cultures. Two organisms were investigated, M. hyorhinis and M. orale.
(§2) However, it is still possible to detect positive activity with concentrations as high as 20% (v/v).
(§3) The concentrations of these detergents can be taken up to 10% without loss of sensitivity of mycoplasmal detection.

luciferase = luciferase (Photinus pyralis, UniProt P08659); conditions: cited from earlier work
Sequence of luciferase (P08659 whole entry): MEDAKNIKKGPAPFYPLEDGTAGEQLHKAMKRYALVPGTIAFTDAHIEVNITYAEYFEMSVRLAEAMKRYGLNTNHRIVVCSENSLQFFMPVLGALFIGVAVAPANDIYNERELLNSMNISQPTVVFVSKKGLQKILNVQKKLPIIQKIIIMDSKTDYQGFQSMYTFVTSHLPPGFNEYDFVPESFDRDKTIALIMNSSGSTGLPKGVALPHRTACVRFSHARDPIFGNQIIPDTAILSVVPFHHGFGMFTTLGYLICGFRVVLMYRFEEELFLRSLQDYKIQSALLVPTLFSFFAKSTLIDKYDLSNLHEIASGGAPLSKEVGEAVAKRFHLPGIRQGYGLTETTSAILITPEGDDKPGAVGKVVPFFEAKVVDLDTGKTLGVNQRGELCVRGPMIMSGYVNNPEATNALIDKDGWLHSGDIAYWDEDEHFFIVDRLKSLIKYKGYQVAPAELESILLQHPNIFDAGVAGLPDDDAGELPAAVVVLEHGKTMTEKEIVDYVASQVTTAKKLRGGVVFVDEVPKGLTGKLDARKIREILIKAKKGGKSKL

[2] = system: M. pneumoniae, M. hominis, M. fermentans, M. genitalium and U. urealyticum; conditions: variable responses between species; cited from earlier work
[3] = system: E. coli strain JM109 cells; test: Effect of Triton-X100 on carbamate or acetate kinase activity from bacterial cells; type: cell-based
[4] = system: M. hyorhinis and M. orale; test: Effect of detergent concentration on detection of mycoplasma enzyme activities; type: cell-based
Source text: as §1, §2
However, mycoplasma can be lysed with concentrations of Triton X-100 at around 1-2%.
as §3

## CC(=O)OP(=O)(O)O [Acetyl phosphate]
[1]; assay still performs
  concentration above which light output is reduced: above 10

## Nc1ncnc2c1ncn2[C@H]1C[C@H](O)[C@@H](COP(=O)(O)OP(=O)(O)OP(=O)(O)O)O1 [deoxy-ATP]
luciferase
  light produced relative to the light generated by ATP: less than 2%

## CO/N=C1\CN(c2nc3c(cc2F)c(=O)c(C(=O)O)cn3C2CC2)CC1CN (centres unmarked) [gemifloxacin]
[2]
  performance against mycoplasma compared with other antibiotics: performed better than tetracycline

## Triton-X100
[3]; Triton-X100 concentrations of the FIG. 10 experiments
  carbamate or acetate kinase activity: did not result in any detectable carbamate or acetate kinase activity
[3]; Triton-X100 increased to 1-2%
  ratio B/A: did not result in positive ratios above 1
[1]; K562 cells infected with M. hyorhinis and M. orale, Hepes-EDTA buffer
  detergent concentration above which light output drops: 4-5%
[4]
  concentration that lyses mycoplasma: 1-2%
[4]; K562 cells infected with M. hyorhinis and M. orale
  highest detergent concentration at which positive activity is still detected: 20 % (v/v)
